Data set [1] deals with A549. The data set is described as follows: Effects of surfactants on cell viability, MTT assay. Particulars: 1% in HBSS, positive control. It counts as cell-based, human. The method, then: (§1) Effects of surfactants on cell viability study: The effects of a surfactant such as polysorbate 80 (PS 80) containing various fatty acids components were used in this study to determine their effect on cell viability in the lungs upon administration of composition for lung delivery. In vitro experiments were carried out using three different human cell lines, i.e., human cell lines A549 (type II pulmonary epithelial cell derived), hAELVi, (human alveolar epithelial cell) and Calu-3 (lung adenocarcinoma cell). The cell lines were obtained from ATCC (Bethesda, MD) and maintained as recommended by the provider and seeded and incubated for the 24 hour test in 96-well plates containing 4×10^4/well in RPMI 1640 medium (Gibco). For testing, the medium as aspirated, the cells were washed twice with Hank's balanced Salt Solution (HBSS) at pH 7.4 and a 0.2 ml sample solution containing a surfactant was added to the cells. HBSS was used as negative control as well as HBSS containing 1% TritonX-100 as positive control. Surfactants under study were two, a super-refined grade PS 80 comprising a mixture of various fatty acid esters of about 70% to 85% total content being oleic acid and having other components including, mystiric, palmitic, palmitoleic, stearic, linoleic and linolenic acid esters. This super-refined PS 80 (Tween® 80, A) manufactured by Mallinckrodt Baker or Merck, and a second PS 80 (B, NOF Corporation) comprising an oleic acid component of about 99% were tested. In the experiments to determine the in vitro IC50 values, the cell lines were exposed to equal concentrations of the two surfactants in HBSS solution at the same concentrations and several dilutions of the test compounds after incubation for 4 hours at 37° C. with shaking, washed with HBSS. Cell viability was assessed based on the absorbance measurements at 550 nm obtained using the MTT assay as described in Metz et al., J. ALTEX, Jan. 29, 2020: V.2 doi:10.14573/altex.1910231. FIGS. 8 and 9, and Table 16 illustrate data obtained from the experiments.

For data set [2], the system named is Calu-3. The description is as above. Particulars: 1% in HBSS, positive control. The class given is cell-based, human. The method, then:
as §1

The subject of data set [3] is hAELVi. The description is as above. The class given is cell-based, human. Particulars: 1% in HBSS, positive control. The method, then:
as §1

The test system of data set [4] is M. avium. Briefly: Minimum inhibitory concentration, microbroth dilution, presence and absence of CF sputum. It counts as cell-based. Particulars: Mycobacterium avium, M. avium B18101968; + SP (10% CF sputum). The procedure: Minimum inhibitory concentration (MIC) testing was performed by microbroth dilution method using Mueller Hinton (MH) broth (Cation Adjusted) to the calcium and magnesium ion concentration recommended in the CLSI standard M7-A7 (Becton Dickinson). MIC testing also was performed by microbroth dilution method using 7H9 broth (Sigma-Aldrich). […] M. abscessus was grown on 7H11 agar plates (Sigma-Aldrich) for 3 days at 35-37° C. in ambient air (depending on bacterial strain), and M. avium was grown on agar 7H11 plates (Sigma-Aldrich) for 21-30 days at 37° C. in ambient air.
The colony forming units (CFUs) are taken from the agar plates and placed in either MH or 7H9 broth with 0.05% tween-80 and grown at 35-37° C. in ambient air until the optical density (OD) absorbance taken after 3 days (M. abscessus) or 12 (M. avium) of growth is an (OD) 0.08-0.1 (0.5 McFarland Standard). The bacterial cell suspensions are then confirmed by preparing them in saline, matching the (OD) 0.08-0.1 (0.5 McFarland Standard). […]
Minimum inhibitory concentrations assays were performed as described above. […] The MIC of the Composition of Example 1 was measured following the same CLSI protocol as described above, in the presence and absence of cystic fibrosis patient sputum. […]

The subject of data set [5] is M. abscessus strain 103. The data set is described as follows: Mouse model of M. abscessus in the SCID mouse. It counts as in vivo. Particulars: treatment end.
Data set [6] relates to M. avium strain 2285 rough. Briefly: Acute mouse model of M. avium infection in the Beige mouse. It counts as in vivo. Particulars: treatment end, Oral 20 mg/kg every other day from day 7.
Data set [7] has as its system M. avium 2285 rough. The data set is described as follows: Chronic Beige mouse model. The class given is in vivo, Beige mice. Particulars: Day 57, Oral 20 mg/kg, 14 treatments every other day from Day 28.
Data set [8] can be described thus: Plasma toxicokinetics, 28-day inhalation study in dogs. Particulars: Beagle, dog, in vivo, inhaled or intranasal. The procedure:
The animals were studied for a period of 84 days.
All GLP canine study activities were performed by Lovelace Biomedical Research Institute (LBRI) under an IACUC approved protocol. Five groups of Beagle dogs were divided into study groups (Table 1) and exposed once daily by face-mask inhalation to filtered air (Group 1), vehicle (Group 2-0.5% polysorbate in saline), or CIS (Groups 3-5) for 28 consecutive days. The Low, Mid, and High doses (Groups 3, 4, and 5) were exposed to an average aerosol concentration of 0.209 mg/L for 30 min, 60 min and 120 min, respectively. The 28-day exposure period was followed by 28- and 56-day no exposure recovery periods (Recovery Study, Study Day (SD) 56 and 84 respectively). Blood was collected for toxicokinetic (TK) analysis from animals after both the first day of dose administration (Day 1; (0.5 hours (±5 minutes), 6 hours (±30 minutes), 12 hours (±30 minutes), 24 hours (±1 hour)), the last day of dose administration (SD28), and at […], SD56 and SD84, as indicated in Table 1. Main Study animals were necropsied one day post final exposure (SD29), while two male and two female Recovery Study animals were each necropsied on SD56 and SD84.
Aerosolized CIS was delivered to each dog by way of a 6-port aerosol exposure system using three Micro Mist compressed air jet nebulizers. (Supplementary Figure S1) All animals were conditioned to the face masks and restraint system before study. The exposure system and aerosol characteristics of the API and vehicle, including target aerosol concentration, concentration homogeneity, concentration repeatability, and aerosol size distribution were confirmed by LBRI prior to study. Dosing for each dog was measured for every dose delivered throughout study and calculated against individual dog weights.
Blood samples were immediately processed or held on wet ice for no more than 2 hours (hr) before being processed to plasma by centrifugation (1300 g, 2-8° C., ≥10 minutes), with plasma separated into appropriately labeled vials and stored frozen (−70 to −90° C.) until CFZ analysis.
Main study animals (3M/3F per timepoint) had blood samples collected at the following timepoints post-exposure on SD1 and SD28: 0.5 hr (±5 minutes), 6.0 hr (±30 minutes), 12 hr (±30 minutes), and 24 hr (±1 hr). Recovery animals (2M/2F per Recovery timepoint) from each group had blood collected on SD42, and prior to euthanasia on SD56 or SD84. The sample size for each group, sex, and timepoint is described in Table 1. Actual collection times were documented, and all animals in this study underwent scheduled sampling at their respective timepoints.
Retention time and peak area were determined by Analyst® Data Acquisition/Processing Software (Version 1.6.3). Analyte concentrations were obtained from a calibration curve constructed by plotting the peak area versus the nominal concentration using Analyst.
Clinical observations were descriptive while numerical evaluations (means and standard deviations) were used for all other parameters where possible. Toxicokinetic parameters were estimated for blood plasma using Phoenix WinNonlin version 8.3 software (Certara L.P.) with a non-compartmental analysis (NCA) consistent with aerosol administration (extravascular model) on each subject at each timepoint. NCA was only performed if there were quantifiable concentrations at two consecutive timepoints. Concentration values below the lower limit of quantitation of 2.00 ng/ml for plasma were labeled as below quantitative limits (BQL). These BQL values were treated as missing and excluded from calculation of descriptive statistics and toxicokinetic analysis.
Concentrations were used with full precision to three significant figures as received from bioanalytical data.

Data set [9] is described as follows: Lung and other tissue toxicokinetics, 28-day inhalation study in dogs. Particulars: Beagle, in vivo, inhaled or intranasal, dog lung, SD29 to SD84, read-out: lung terminal elimination half-life (converted). The source says: Clofazimine was extracted by protein precipitation from dog plasma.
A short description of data set [10]: clinical. Particulars: human, plasma, inhaled.
Procedure: (§2) For placebo, subjects were treated with a nebulized sterile, isotonic saline solution consisting of 0.9% wt/v sodium chloride. […] The doses were administered by inhalation with a Pari e-Flow nebulizer system to investigate tolerability and pharmacokinetics (PK) in healthy human subjects. The subjects were monitored for any life-threatening or severe adverse events and samples of their blood were taken for analysis.
(§3) Participants resided at the clinical research unit until day 5 post-dose, during which time they were evaluated for safety and samples were collected for PK assessment. Participants returned on days 8 and 15 for additional safety assessments and sample collection. […] Participants resided at the clinical research unit until day 8 post-dose, during which time they were evaluated for safety and samples were collected for PK assessment. Participants returned on days 15 and 36 for additional safety assessments and sample collection.
For data set [11] the following is noted: BCS class II drug; cited from earlier work.
The conditions of data set [12]: cited from earlier work.
Data set [13] can be described thus: Pharmacokinetics of clofazimine delivered by nebulization in healthy subjects.
Procedure: as §2, §3
A short description of data set [14]: Safety and tolerability of clofazimine delivered by nebulization in healthy subjects. Particulars: inhaled, nebulized.
Procedure: as §2, §3

Where only a bound is given, the exact number is not on record here.

On to Triton X-100, for which the cell viability result in data set [1], in data set [2] and in data set [3] was “loss all viability” each time.

As for `CC(C)/N=c1\cc2n(-c3ccc(Cl)cc3)c3ccccc3nc-2cc1Nc1ccc(Cl)cc1` [Clofazimine, N,5-bis(4-chlorophenyl)-3-propan-2-yliminophenazin-2-amine], in data set [4], the minimum inhibitory concentration (MIC) is > 2 µg/mL. The entries for the “Liver Log10 CFU ± SEM” value in data set [5] (Oral 20 mg/kg every other day), in data set [6] and in data set [7] were 4.78 ± 0.18 Log10 CFU, 3.01 ± 0.03 Log10 CFU and 4.07 ± 0.04 Log10 CFU, respectively. Besides, the figures for the “Lung Log10 CFU ± SEM” value in [5] (Oral 20 mg/kg every other day), in data set [6] and in data set [7] were 3.33 ± 0.17 Log10 CFU, 3.95 ± 0.03 Log10 CFU and 5.94 ± 0.12 Log10 CFU, respectively. Also, the “Spleen Log10 CFU ± SEM” value in data set [5] (Oral 20 mg/kg every other day) is given as 3.79 ± 0.10 Log10 CFU; in data set [6], 3.14 ± 0.03 Log10 CFU; in data set [7], 3.08 ± 0.04 Log10 CFU. In addition, the half-life in [8] (female, 0.74 mg/kg) was 8.99 h; in [8] (female, 1.48 mg/kg), 9.43 h; in [8] (female, 2.52 mg/kg) it was 7.23 h; in [8] (male, 0.68 mg/kg), 7.19 h; in data set [8] (male, 1.36 mg/kg), 8.95 h; in [8] (male, 2.72 mg/kg), 7.89 h. For the same molecule, the half-life in [9] (female, 2.95 mg/kg, Low dose females) is 262 h; in data set [9] (male, 5.45 mg/kg, Mid dose males) it was 239 h; in data set [9] (male, 10.87 mg/kg, High dose males), 475 h; in data set [10], 290 h. The solubility in water result in data set [11] is “practically insoluble in water”. Besides, in [12], the “absorption in humans after oral administration” value is on record as 45-62%. Besides, the “time to peak plasma concentrations” value in data set [13] (repeated administration, inhaled 30 or 90 mg daily for seven days) fell in the range of 2 to 12 h; in data set [13] (single administration, inhaled 30, 60, 90 mg) it was 4 to 8 h. Further, the “increase in AUC0-24” value is 1.6 fold in data set [13] (single administration, dose increase of 1.5-fold) and 2.3 fold in data set [13] (single administration, dose increase of 2-fold). Also, in data set [14], the “Columbia Suicide Severity Rating Scale (C-SSRS)” value was “no suicidal ideation or behavior”. Besides, the ECG results in data set [14] is on record as “no abnormal, clinically significant electrocardiogram”. Moreover, the skin discoloration result in data set [14] is recorded as “no evidence of skin discoloration”.

For `NCC[C@H](O)C(=O)N[C@@H]1C[C@H](N)[C@@H](O[C@H]2O[C@H](CN)[C@@H](O)[C@H](O)[C@H]2O)[C@H](O)[C@H]1O[C@H]1O[C@H](CO)[C@@H](O)[C@H](N)[C@H]1O` [Amikacin, amikacin], in data set [5] (SQ 150 mg/kg every other day), the “Liver Log10 CFU ± SEM” value was determined as 3.07 ± 0.10 Log10 CFU, the “Lung Log10 CFU ± SEM” value was 3.94 ± 0.11 Log10 CFU and the “Spleen Log10 CFU ± SEM” value turned out to be 4.37 ± 0.31 Log10 CFU.

Source of the values: patent US20260069590A1, “METHOD FOR TREATING NONTUBERCULOUS MYCOBACTERIAL INFECTION” (priority 2022, published 2026).
